What is called IC50 is the concentration at which inhibition is half-maximal.

The text below walks through data of patent EP4763839A1 (Pamplona Therapeutics (Shenzhen) Co., Ltd., priority 2023, dated 2025).

Some results are limits rather than exact numbers.

The experiment deals with T1, IRAK4 (Homo sapiens, UniProt Q9NWZ3).
T1 sequence (Q9NWZ3 1-460): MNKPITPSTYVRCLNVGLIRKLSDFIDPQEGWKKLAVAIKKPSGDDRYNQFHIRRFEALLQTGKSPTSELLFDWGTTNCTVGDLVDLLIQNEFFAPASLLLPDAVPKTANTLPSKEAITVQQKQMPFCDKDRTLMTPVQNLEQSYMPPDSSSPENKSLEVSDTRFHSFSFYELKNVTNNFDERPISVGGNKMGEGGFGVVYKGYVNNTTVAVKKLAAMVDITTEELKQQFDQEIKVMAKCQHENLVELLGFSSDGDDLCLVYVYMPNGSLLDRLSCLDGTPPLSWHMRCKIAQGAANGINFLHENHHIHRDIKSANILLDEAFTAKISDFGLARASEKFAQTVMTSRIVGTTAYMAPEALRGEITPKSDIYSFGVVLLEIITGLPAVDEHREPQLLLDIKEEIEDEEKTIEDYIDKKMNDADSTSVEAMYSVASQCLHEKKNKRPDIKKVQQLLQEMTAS
The experiment in a line: Assay for inhibitory effect of compound on IRAK4 kinase activity (KinEASE-STK S1 HTRF kit). Type of experiment: biochemical. As to conditions: kinase 8 nM, ATP 80 µM, 37°C 90 minutes; read-out: IRAK4 HTRF IC50. As to the method:
Example 1: Kinase activity assay
Assay for inhibitory effect of compound on IRAK4 kinase activity
The inhibitory effect of the compound on IRAK4 kinase activity was measured using the KinEASE-STK S1 serine/threonine kinase kit (Cisbio). The specific method was as follows: the compound was dissolved in dimethyl sulfoxide and then subjected to 3-fold serial dilution in dimethyl sulfoxide, yielding final test compound concentrations in the reaction system ranging from 5,000 nM to 0.0254 nM. The kinase at a final concentration of 8 nM was added, followed by incubation at rt for 15 minutes. Subsequently, biotinylated STK1 substrate at a final concentration of 400 nM and adenosine triphosphate (ATP) at a final concentration of 80 µM were sequentially added, and the mixture was incubated at 37°C for 90 minutes. Then, the reaction was terminated by adding an anti-phosphoserine/threonine antibody conjugated with a europium cryptate and streptavidin-conjugated XL665 to the reaction system. After incubation at rt for 1 hour, the fluorescence intensity at emission wavelengths of 620 nm and 665 nm for each well was measured using an EnVision microplate reader (PerkinElmer) in HTRF mode. The ratio value was calculated using the formula: Ratio = (665 nm/620 nm)×10^4 The inhibition rate of the compound at each concentration was calculated using the formula: Inhibition% = [1-(Signal sample-Signal min)/(Signal max-Signal min)]×100. Subsequently, the dose-response curve was fitted by nonlinear curve fitting of log concentration versus inhibition rate using Fit Modela (205) in XLfit to give the IC50 value of the compound for inhibition of protein activity.
(In general: Time-resolved FRET reads energy transfer from a long-lived donor to a nearby acceptor.)

As to `[2H]C([2H])C(=O)c1nn(-c2ccccc2)cc1NC(=O)c1cccc(-c2ccn[nH]2)n1` [Compound A242, N-(3-(Acetyl-2,2-d2)-1-phenyl-1H-pyrazol-4-yl)-6-(1H-pyrazol-5-yl)picolinamide], the IC50 is less than 0.1 µM.
Consider `CC(C)NC(=O)c1nn(-c2ccccc2)cc1NC(=O)c1cccc(-c2ccn[nH]2)n1` [Compound A247, N-(3-(Isopropylcarbamoyl)-1-phenyl-1H-pyrazol-4-yl)-6-(1H-pyrazol-5-yl)picolinamide], for which the half-inhibitory concentration (IC50) fell in the range of 0.1 to 1 µM.
The figure for `CC(C)(O)c1nn(C2CC3(CCNCC3)C2)cc1NC(=O)c1ccc2cc(C#N)cnn12` [Compound A106, 3-Cyano-N-(3-(2-hydroxypropan-2-yl)-1-(7-azaspiro[3.5]nonan-2-yl)-1H-pyrazol-4-yl)pyrrolo[1,2-b]pyridazine-7-carboxamide] is less than 0.1 µM.
With `CS(=N)(=O)c1nn(-c2ccccc2)cc1NC(=O)c1cccc(-c2c[nH]cn2)n1` (stereo not drawn) [Compound A98, 6-(1H-imidazol-4-yl)-N-(3-(S-methylsulfonimidoyl)-1-phenyl-1H-pyrazol-4-yl)picolinamide], the IC50 is 0.1 to 1 µM.
The figure for `CC(C)(O)c1nn(C2CCC2)cc1NC(=O)c1cnn2ccc(-c3ccn[nH]3)nc12` [Compound A290, N-(1-cyclobutyl-3-(2-hydroxypropan-2-yl)-1H-pyrazol-4-yl)-5-(1H-pyrazol-5-yl)pyrazolo[1,5-a]pyrimidine-3-carboxamide] is 0.1 to 1 µM; for `CC(O)c1nn(-c2ccccc2)cc1NC(=O)c1cccc(C(F)(F)F)n1` (stereo not drawn) [Compound A75, N-(3-(1-hydroxyethyl)-1-phenyl-1H-pyrazol-4-yl)-6-(trifluoromethyl)picolinamide] it is 0.1 to 1 µM; for `NC(=O)c1cn(-c2ccccc2)cc1NC(=O)c1cccc(C(F)(F)F)n1` [Compound A47] it is less than 0.1 µM.
For `N#Cc1cnn2c(C(=O)Nc3cn(-c4ccccc4)nc3C(N)=O)ccc2c1` [Compound A231] the value was less than 0.1 µM; for `NC(=O)c1nn(C23CC(C2)C3)cc1NC(=O)c1cccc(C(F)(F)F)n1` [Compound A258], 0.1 to 1 µM.
Consider `NC(=O)c1nn(-c2ccccc2)cc1NC(=O)c1cccc(-c2cc[nH]c2)n1` [Compound A91], for which the IC50 was in the range of 0.1 to 1 µM.
The figure for `O=C(Nc1cn(C2CCCCC2)nc1C(=O)NC1CC1)c1cccc(-c2ccn[nH]2)n1` [Compound A255, N-(1-Cyclohexyl-3-(cyclopropylcarbamoyl)-1H-pyrazol-4-yl)-6-(1H-pyrazol-5-yl)picolinamide] is 0.1 to 1 µM; for `COc1nn(C2CCC2)cc1NC(=O)c1cnn2ccc(-c3ccn[nH]3)nc12` [Compound A288, N-(1-cyclobutyl-3-methoxy-1H-pyrazol-4-yl)-5-(1H-pyrazol-5-yl)pyrazolo[1,5-a]pyrimidine-3-carboxamide] it is less than 0.1 µM.
The figure for `COc1ccc(-n2cc(NC(=O)c3cccc(C(F)(F)F)n3)c(C(N)=O)n2)cc1` [Compound A7] is 0.1 to 1 µM.
For `CC(=O)N1CCN(c2ccc(-n3cc(NC(=O)c4cccc(C(F)(F)F)n4)c(C(N)=O)n3)cc2)CC1` [Compound A27] the value was less than 0.1 µM; for `CC(C)NS(=O)(=O)c1nn(-c2ccccc2)cc1NC(=O)c1cccc(-c2ccn[nH]2)n1` [Compound A249, N-(3-(N-Isopropylsulfamoyl)-1-phenyl-1H-pyrazol-4-yl)-6-(1H-pyrazol-5-yl)picolinamide], 0.1 to 1 µM.
`NC(=O)c1nn(C2CCN(CCN3CCN(c4ccc5c(c4)C(=O)N(C4CCC(=O)NC4=O)C5=O)CC3)CC2)cc1NC(=O)c1cccc(C(F)(F)F)n1` (stereo not drawn) [Compound A109]: the IC50 was 0.1 to 1 µM.
The figure for `NS(=O)(=O)c1nn(-c2ccccc2)cc1NC(=O)c1cccc(-c2c[nH]cn2)n1` [Compound A94, 6-(1H-imidazol-4-yl)-N-(1-phenyl-3-sulfamoyl-1H-pyrazol-4-yl)picolinamide] is less than 0.1 µM; for `NC(=O)c1nn(-c2ccc(N3CCNCC3)cc2)cc1NC(=O)c1cccc(C(F)(F)F)n1` [Compound A25] it is less than 0.1 µM.
